{"source": "patent US9572877B2", "about": "(priority 2010, dated 2017)", "key": {"[1]": {"tested_on": "Human MDDCs (Monocyte-derived DC cells)", "assay": "Maturation of dendritic cells: surface marker expression by flow cytometry, human MDDCs", "format": "cell-based", "details": "1 μg/ml, 37° C., 24 hrs", "method": "(§1) Approximately 80 ml of blood from healthy human donors was collected and isolated peripheral blood mononuclear cells (PBMCs) with Ficoll-Paque™ gradient separation method. Monocytes were isolated from PBMCs using anti-CD14 microbeads (MACS system), seeded at […] in a 24-well plate with RPMI medium contained 10% FBS, IL-4 and GM-CSF and cultured to obtain human MDDCs. Bone marrow cells were isolated from male BALB/c mouse and cultured with medium contained IL-4 and GM-CSF for 6 days to obtain BMDCs. Then, at 7 days, CD11c^+ cells were isolated using anti-CD11c-coated magnetic beads.\n(§2) Human MDDCs (Monocyte-derived DC cells) and mouse BMDC (Bone marrow DCs) were isolated with the method described above, treated respectively with LPS, MPL and CIA05 with 1 μg/ml of concentration and incubated at 37° C. for 24 hrs. After incubation, CD40, CD80 and CD86 were verified in mouse BMDCs surface, and HLA-DR, CD80 and CD86 were verified in human MDDCs by flow cytometry, respectively. […] Therefore, CIA05 may solve these problems."}, "[2]": {"tested_on": "mouse BMDC (Bone marrow DCs)", "assay": "Maturation of dendritic cells: surface marker expression by flow cytometry, mouse BMDC", "format": "cell-based", "details": "mouse BMDCs, 1 μg/ml, 37° C., 24 hrs", "method": "as §1, §2"}}, "data": [{"substance": "Monophosphoryl lipid A [MPL]", "values": [{"measurement": "expression of MDDCs surface marker HLA-DR, CD80 and CD86", "setting": "[1]", "value": "limited in human"}, {"measurement": "expression of DCs surface marker CD40, CD80 and CD86", "setting": "[2]", "value": "expressed with similar distribution"}]}, {"substance": "lipopolysaccharide [LPS]", "values": [{"measurement": "expression of DCs surface marker CD40, CD80 and CD86", "setting": "[2]", "value": "expressed with similar distribution"}]}]}
